The text below walks through data of patent US20220370454A1, “METHODS FOR TREATING CENTRAL NERVOUS SYSTEM DISORDERS WITH MUSCARINIC RECEPTOR ACTIVATION AND ANTIPSYCHOTICS” (Karuna Therapeutics, Inc., priority 2021, published 2022).

The structures appear in SMILES notation.

The test system of one data set is Adult male C57BL/6J mice. The data set can be described thus: Conditioned avoidance response (CAR) assay, Example 1. It counts as in vivo. To be noted: for Effect on conditioned avoidance responding (dose-response, FIG. 1): each compound alone, compiled independent studies; for Avoidance responding versus vehicle-vehicle control, drug alone: subthreshold doses alone (data not shown); for Blockade of xanomeline's effects in CAR by muscarinic antagonist: maximally active dose of xanomeline, FIG. 11, N=14. From the text:
In the CAR assay, mice were first trained to avoid a foot shock (i.e., crossing from one side of a shuttle box to another within 10 secs) to a performance criterion of ≥85% avoidance responses. A repeated-measures, counterbalanced design was used. Two experiments evaluated the effects of blocking central (with scopolamine) vs. peripheral (with N-methylscopolamine) muscarinic receptors. […] “Subthreshold” of “sub-efficacious” refers to doses that are lower than the therapeutically effective amount for monotherapy but which could be effective in synergy with the antipsychotics tested.
Referring to FIG. 1, the compiled data over independent studies with each compound were analyzed separately via one-way repeated-measures ANOVA. A Dunnett post-hoc test was performed and that dose group significance was only assessed against Vehicle.
Post hoc analysis vs. xanomeline alone (*) and vs. comparator dose alone (#).

The next data set deals with male C57BL/6J mice. The experiment in a line: Conditioned avoidance response (CAR) assay, Example 2 (enhanced aripiprazole formulation, two sequential injections). To be noted: for Average avoidance response percentages, A alone: Example 2.
In data set [1] the test system is MK-801-induced locomotor activity in C57BL/6J mice. The experiment in a line: MK-801-induced locomotor activity (LMA) assay. It counts as in vivo. The text has this: In the CAR assay, mice were first trained to avoid a foot shock (i.e., crossing from one side of a shuttle box to another within 10 secs) to a performance criterion of ≥85% avoidance responses. A repeated-measures, counterbalanced design was used. Two experiments evaluated the effects of blocking central (with scopolamine) vs. peripheral (with N-methylscopolamine) muscarinic receptors. Additional experiments evaluated augmentation and synergy by combining dosing subthreshold doses of xanomeline plus risperidone or aripiprazole. “Subthreshold” of “sub-efficacious” refers to doses that are lower than the therapeutically effective amount for monotherapy but which could be effective in synergy with the antipsychotics tested.
In the LMA assay, varying doses of xanomeline and risperidone were co-formulated. […] After the experiment, plasma and brain tissue were collected to determine drug exposure.
Data are mean (±SEM) total distance traveled.

A short description of data set [2]: Brain and plasma drug exposure collected after the LMA study. It counts as in vivo, mice. From the text: After the experiment, plasma and brain tissue were collected to determine drug exposure.

In the case of `O=C1CCc2ccc(OCCCCN3CCN(c4cccc(Cl)c4Cl)CC3)cc2N1` [Aripiprazole, aripiprazole], the “Average avoidance response percentages, A alone” value was found to be 2% with Adult male C57BL/6J mice (aripiprazole 1 mg/kg alone), 6% in the data set with Adult male C57BL/6J mice (aripiprazole 3 mg/kg alone), 14% in the data set on male C57BL/6J mice (aripiprazole 0.1 mg/kg IP alone) and 31% in the data set on male C57BL/6J mice (aripiprazole 0.3 mg/kg IP alone). Besides, the “Effect on conditioned avoidance responding (dose-response, FIG. 1)” value (shortened to “Effect … (dose-response, FIG. 1)”) in the data set with Adult male C57BL/6J mice was “dose-dependently reduced conditioned avoidance responding”. In addition, the “Avoidance responding versus vehicle-vehicle control, drug alone” value with Adult male C57BL/6J mice was “did not significantly differ from vehicle-vehicle control conditions”. For the same compound, the “Effects on CAR activity endpoints” value with male C57BL/6J mice (aripiprazole 3 mg/kg IP, FIG. 18, N=15) is on record as “robust effects on CAR activity endpoints”. Further, the Escape failures result is “No dose of aripiprazole or combination dose with xanomeline resulted in escape failures” in the data set on male C57BL/6J mice (aripiprazole 0.1, 0.3 mg/kg with or without xanomeline 1 mg/kg) and “not evident at any doses” with male C57BL/6J mice (aripiprazole dose response study, 0.3-10 mg/kg). The “Disruption of CAR performance (dose response)” value in the data set on male C57BL/6J mice (aripiprazole 0.3, 1, 3 and 10 mg/kg, data not shown) was “effective at disrupting CAR performance in a dose-related manner”. In addition, the “ED50 in CAR” value with male C57BL/6J mice (aripiprazole dose response study, Example 2 formulation) was around 0.3 mg/kg.
On to `Cc1nc2n(c(=O)c1CCN1CCC(c3noc4cc(F)ccc34)CC1)CCCC2` [Risperidone, risperidone], for which, in the data set with Adult male C57BL/6J mice, the “Effect … (dose-response, FIG. 1)” value is “dose-dependently reduced conditioned avoidance responding”. Also, the “Average avoidance response percentages, R alone” value was determined as 5% in the data set on Adult male C57BL/6J mice (risperidone 0.03 mg/kg alone), 26% in the data set with Adult male C57BL/6J mice (risperidone 0.1 mg/kg alone) and 85% in the data set on Adult male C57BL/6J mice (risperidone 0.3 mg/kg alone). Besides, the “Avoidance responding versus vehicle-vehicle control, drug alone” value in the data set with Adult male C57BL/6J mice is “did not significantly differ from vehicle-vehicle control conditions”. The “Activity alone against MK-801 stimulated activity” value in data set [1] (risperidone 0.001 mg/kg alone) was “Inactive”.
On to `CCCCCCOc1nsnc1C1=CCCN(C)C1` [Xanomeline, xanomeline], for which the “Effect … (dose-response, FIG. 1)” value in the data set on Adult male C57BL/6J mice is given as “dose-dependently reduced conditioned avoidance responding”. The “Average avoidance response percentages, X alone” value with Adult male C57BL/6J mice (xanomeline 1 mg/kg alone, aripiprazole combination study (co-formulation, single SC injection), N=16) worked out at 5%; in the data set on Adult male C57BL/6J mice (xanomeline 1 mg/kg alone, risperidone combination study, N=17), 7%; in the data set with Adult male C57BL/6J mice (xanomeline 3 mg/kg alone, aripiprazole combination study), 20%; in the data set with male C57BL/6J mice (xanomeline 1 mg/kg SC alone, Example 2, N=16) it was 6%. In data set [2] (co-dosed with risperidone), the “Xanomeline plasma exposure across the increasing doses of risperidone” value was “no significant increase”. In addition, the “Brain level of the named substance” value in data set [2] (treatment: MK-801 0.3 + risperidone 0.001 + xanomeline 1 mg/kg) is recorded as 143.4 ± 4.8 ng/g; in data set [2] (treatment: MK-801 0.3 + risperidone 0.003 + xanomeline 1 mg/kg), 154.6 ± 9.3 ng/g; in data set [2] (treatment: MK-801 0.3 + risperidone 0.01 + xanomeline 1 mg/kg, * p<0.05 vs xanomeline alone), 184.9 ± 15.5* ng/g; in data set [2] (treatment: MK-801 0.3 + xanomeline 1 mg/kg), 126.0 ± 6.6 ng/g. In the data set on male C57BL/6J mice (1 mg/kg dose alone), the “Activity in the CAR assay (percentage avoidance responses and latency to respond)” value is “inactive in the CAR assay”. Further, the “Activity alone against MK-801 stimulated activity” value in data set [1] (xanomeline 1 mg/kg alone) was “Inactive”.
Turning to `C[N+]1(C)[C@@H]2C[C@@H](OC(=O)[C@H](CO)c3ccccc3)C[C@H]1[C@@H]1O[C@@H]12` [N-methyl-scopolamine, N-methylscopolamine], the “Blockade of the activity of xanomeline in CAR” value with Adult male C57BL/6J mice (100-fold higher dose of N-methyl-scopolamine) was “failed to block the activity of xanomeline”. Besides, the “Blockade of xanomeline's effects in CAR by muscarinic antagonist” value in the data set on Adult male C57BL/6J mice is listed as “had no effect”.
Consider `CN1[C@@H]2C[C@@H](OC(=O)[C@H](CO)c3ccccc3)C[C@H]1[C@@H]1O[C@@H]12` [scopolamine], for which the “Blockade of the activity of xanomeline in CAR” value was “partially blocks” in the data set with Adult male C57BL/6J mice (SCOP 0.03 mg/kg) and “fully” in the data set on Adult male C57BL/6J mice (SCOP 0.1 mg/kg). Further, the “Activity alone in CAR” value in the data set on Adult male C57BL/6J mice (SCOP 0.3 mg/kg) is recorded as “has no activity alone in CAR”. Moreover, the “Blockade of xanomeline's effects in CAR by muscarinic antagonist” value in the data set with Adult male C57BL/6J mice is listed as “dose-dependently blocked xanomeline's effects”. For the same compound, the “Reversal of xanomeline activity in CAR” value in the data set on Adult male C57BL/6J mice (scopolamine 0.3 mg/kg) is recorded as “fully reversed xanomeline activity”. In the data set on Adult male C57BL/6J mice (scopolamine 0.3 mg/kg, FIG. 12, N=16), the “Effect on risperidone's antipsychotic-like effect in CAR” value is recorded as “failed to attenuate”. In addition, the “Effect of scopolamine on the activity of aripiprazole in CAR” value in the data set on male C57BL/6J mice (0.3 mg/kg scopolamine SC 15 minutes before 3.0 mg/kg aripiprazole) is “slight, but statistically significant effect in reducing the activity of aripiprazole”.
